Test [1] has as its target T1, Calcium/calmodulin-dependent protein kinase IV (CaMKIV) (Homo sapiens, UniProt Q16566).
T1 construct: gene CAMK4; CaMKIV kinase domain
T1 sequence (Q16566 46-300 limits assumed): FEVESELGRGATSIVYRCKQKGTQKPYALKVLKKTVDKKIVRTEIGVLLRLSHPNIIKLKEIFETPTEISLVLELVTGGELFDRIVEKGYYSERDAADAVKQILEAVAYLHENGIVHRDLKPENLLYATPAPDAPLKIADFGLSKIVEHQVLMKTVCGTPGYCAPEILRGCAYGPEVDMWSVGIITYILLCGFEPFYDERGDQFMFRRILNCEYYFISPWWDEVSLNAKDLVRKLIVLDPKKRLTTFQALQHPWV
Description: malachite green (BIOMOL Green) ATPase inhibition assay with recombinant refolded CaMKIV; also intrinsic fluorescence quenching (binding constant […] ^-1). The class given is biochemical.

Test [2] addresses T1, Calcium/calmodulin-dependent protein kinase IV (CaMKIV). Description: malachite green (BIOMOL Green) ATPase inhibition assay with recombinant refolded CaMKIV; also intrinsic fluorescence quenching (Ksv […] ^-1). The class given is biochemical.

As for `O=c1oc2c(O)c(O)cc3c(=O)oc4c(O)c(O)cc1c4c23` [EA, ellagic acid], in test [1], the IC50 amounted to 39.7 ± 8.6 µM. As for `O=c1c(O)c(-c2ccc(O)c(O)c2)oc2cc(O)cc(O)c12` [quercetin], in test [2], the IC50 amounted to 61.3 ± 5.4 µM.

Source of the values: publication PMC7382742, “Identification of Potential Inhibitors of Calcium/Calmodulin-Dependent Protein Kinase IV from Bioactive Phytoconstituents” (Oxidative Medicine and Cellular Longevity, 2020).
